Test results reported in US6841661B2, “Glycopeptide antibacterial compounds, compositions containing same and methods of using same” (Princeton Univerisity, priority 1999, dated 2005).
Values after ≈ are worked out from the molar mass of the structure shown. Like-named read-outs stand apart in the source and are kept apart here.

Columns and labels:
[1] = test system: E. coli ASP #50 (envA+); experiment: In vitro MIC panel assay (NCCLS broth microdilution); type: cell-based; conditions: Escherichia coli
Description: (§1) National Committee for Clinical Laboratory Standards (NCCLS) guidelines [Methods for Dilution Antimicrobial Susceptibility Tests for Bacteria that Grow Aerobically-Fourth Edition; Approved Standard (NCCLS Document M7-A4, January 1997)] are used to establish the assay, although variations are made to optimize the published method according to the specific needs of the present investigation.
(§2) The test panel currently includes eight enterococci and 13 staphylococci, which are selected based upon their antibiotic susceptibility profiles. The methicillin-sensitive Staphylococcus aureus (MSSA) strain MB2985 (Smith isolate) is used to assesses the potential for serum protein binding of the compounds. The paired Gram-negative strains ASP #49 (envA-) and ASP #50 (envA+) (M. Salvatore/N. Lee) are included to judge membrane effects. Table 3 presents a detailed description of the strains included in the panel, including some of the sources of the strains of bacteria.
(§3) The glycopeptide antibiotic teicoplanin is included whenever possible.
(§4) TSB, containing 10% HS* for vancomycin intermediate S. aurcus/methicillin-resistant S. aureus (VISA/MRSA) strains, is inoculated from an appropriate source (frozen broth or agar slant) and grown approximately 17 hr at 35° C. with shaking at 220 rpm. Cultures are grown in tubes with a volume of 5 ml for enterococci and 2 ml for all other strains.
(§5) Four milliliter (4 ml) overnight culture is added to 36 ml physiological saline to obtain tenfold dilutions (enterococci). Overnight culture (0.4 ml) is added to 39.6 ml saline to obtain 100-fold dilutions (all strains except enterococci). Diluted cultures are maintained on ice until time of inoculation of test plates.
(§6) The number of CFU/mL is determined on BHI agar plates, although this is not done routinely because titers of overnight cultures are relatively constant. The test media include: • BHI for enterococci and VISA/MRSA; • MH II (i.e., cation-adjusted Mueller-Hinton broth) for MRS, MSS and E. coli.; • MH II+HSA for MSSA is prepared as follows: • a. 2×MHII+86mg/ml HSA • b. Dissolve 4.3 g HSA in 50 ml autoclaved 2x MH II. • c. pH to 7.0 by adding 2M MOPS, sodium. • d. Filter sterilize using 0.22 μm Coming cellulose acetate filter, used because of reported low protein binding. • e. 1×MH II+43 mg/ml HSA • f. Dilute the 2×medium twofold and filter as above. 5.8.6. Preparation of Test Plates
(§7) Using a Denley liquid handling system (or similar automatic device), 100 μ1×medium is added to each well in columns 2-12 of a 96-well microtiter dish. Using a multichannel pipettor, 100 μl 2×medium is added to each well in column 1. Plates may be filled on the day prior to assay, wrapped in plastic bags and refrigerated.
(§8) Vancomycin, Schering 29482, and teicoplanin are prepared on a weight per volume basis using 10 mM 3-(N-morpholino)propane-sulfonic acid (MOPS) buffer pH 7. Test compounds are received in solution in appropriate solvent (typically as 1 mg/ml in DMSO) or are dissolved in appropriate solvent prior to further dilution in 10 mM MOPS buffer, ph7. Consistent with NCCLS guidelines, antibiotics are handled aseptically but are not otherwise sterilized.
(§9) 100 μl appropriately diluted antibiotic solution is added to the first well of the designated row of the 96-well microtiter dish and serially diluted by twofold across the row using the Denley liquid handling system. With the aid of a Dynatech NEC 2000 inoculator, each well of the microtiter dish is inoculated with 1.5 μl diluted overnight culture, yielding approximately 1-5×10^6 CFU/ml for enterococci and approximately 3-7×10^5 CFU/ml for all other strains. Dishes are placed in stacks of no more than five, wrapped in plastic bags and incubated at 35° C. • Indication of result(s) type (% INH, IC50, Zone size, etc.) • MIC=minimum inhibitory concentration ps 5.8.9. Interpretation of the Results on the Basis of Activity […]

[2] = test system: E. faecium RLA1; experiment: as above; type: cell-based; conditions: Enterococcus faecium
Description: as §1, §2, §3, §4, §5, §6, §7, §8, §9

[3] = test system: MRCNS CL 546 (S. hom.); experiment: as above; type: cell-based
Description: as §1, §2, §3, §4, §5, §6, §7, §8, §9

[4] = test system: MRSA CL 3033; experiment: as above; type: cell-based; conditions: Staphylococcus aureus
Description: as §1, §2, §3, §4, §5, §6, §7, §8, §9

[5] = test system: MRCNS CL 227 (S. hom.); experiment: as above; type: cell-based
Description: as §1, §2, §3, §4, §5, §6, §7, §8, §9

[6] = test system: MRCNS CL 202 (S. haem.); experiment: as above; type: cell-based
Description: as §1, §2, §3, §4, §5, §6, §7, §8, §9

[7] = test system: E. faecalis MB2864; experiment: as above; type: cell-based; conditions: Enterococcus faecalis
Description: as §1, §2, §3, §4, §5, §6, §7, §8, §9

[8] = test system: MRCNS CL 3069 (S. epi.); experiment: as above; type: cell-based
Description: as §1, §2, §3, §4, §5, §6, §7, §8, §9

[9] = test system: MRSA COL; experiment: as above; type: cell-based; conditions: Staphylococcus aureus
Description: as §1, §2, §3, §4, §5, §6, §7, §8, §9

[10] = test system: MRCNS CL 171 (S. haem.); experiment: as above; type: cell-based
Description: as §1, §2, §3, §4, §5, §6, §7, §8, §9

[11] = test system: S. aureus MB 2985; experiment: MIC by microdilution in Mueller-Hinton broth (in vivo study); type: cell-based; conditions: Staphylococcus aureus, MB2985, inoculum 1.4 × 10^5 cfu/mL in cation adjusted MHB, read-out: MIC
Experimental: The MIC is determined by microdilution in Mueller-Hinton broth (MHB) according to the National Committee for Clinical Laboratory Standards guidelines after incubation for 24 hours. Enterococci are tested in cation-supplemented Mueller-Hinton broth at 1.4×10^5 cfu/ml. MIC is defined as the lowest concentration of antibiotic, which inhibits visible growth.

[12] = test system: CL 4931, CL 5053, CL 5242 and CL 4877; type: cell-based, E. faecium, E. faecalis
Procedure, shortened: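 NCCLS-based microdilution, 35 °C. Media: BHI for VanB E. faecalis and VISA/MRSA, MH II for E. coli envA-. Inoculum: enterococci ~1-5×10^6 CFU/ml, others ~3-7×10^5 CFU/ml. Growth read at 22-24 hr (E. coli 18-20 hr).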

[13] = test system: E. faecium CL 5053 (VanA); experiment: microbe, parasite or virus in culture; type: cell-based; conditions: for MIC, CL5053: E. faecium CL 5053 (VanA)
Procedure, shortened: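 NCCLS M7-A4-based broth microdilution with twofold serial dilutions, incubated at 35° C; medium BHI for enterococci and VISA/MRSA, cation-adjusted Mueller-Hinton for E. coli. Inoculum about 1-5×10^6 CFU/ml (enterococci) or 3-7×10^5 CFU/ml (others); MIC is lowest concentration with no visible growth, read at 18-20 hr for E. coli, 22-24 hr otherwise.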

**Q.** With `CN[C@H](CC(C)C)C(=O)N[C@H]1C(=O)N[C@@H](CC(N)=O)C(=O)N[C@H]2C(=O)N[C@H]3C(=O)N[C@H](C(=O)N[C@H](C(=O)O)c4cc(O)cc(O)c4-c4cc3ccc4O)[C@H](O)c3ccc(c(Cl)c3)Oc3cc2cc(c3O[C@@H]2O[C@H](CO)[C@@H](O)[C@H](O)[C@H]2O[C@H]2C[C@](C)(N)[C@H](O)[C@H](C)O2)Oc2ccc(cc2Cl)[C@H]1O` [Vancomycin, vancomycin, reference compound] as the compound, how does the MIC [1] read?
**A.** 256 µg/mL (≈ 177 µM)

**Q.** What about the MIC [2] of the same compound?
**A.** 2 µg/mL (≈ 1.38 µM)

**Q.** And the MIC [3]?
**A.** 1 µg/mL (≈ 0.69 µM)

**Q.** And the MIC [4]?
**A.** 0.5 to 1 µg/mL (≈ 0.345 to 0.69 µM)

**Q.** What about the MIC [5] of the same compound?
**A.** 1 µg/mL (≈ 0.69 µM)

**Q.** What about the MIC [6] of the same compound?
**A.** 2 µg/mL (≈ 1.38 µM)

**Q.** What about the MIC [7] of the same compound?
**A.** 2 µg/mL (≈ 1.38 µM)

**Q.** What about the MIC [8] of the same compound?
**A.** 2 µg/mL (≈ 1.38 µM)

**Q.** What about the MIC [9] of the same compound?
**A.** 1 µg/mL (≈ 0.69 µM)

**Q.** And the MIC [10]?
**A.** 2 µg/mL (≈ 1.38 µM)

**Q.** What about the MIC [11] of the same compound?
**A.** 0.5 µg/mL (≈ 0.345 µM)

**Q.** And the Mean ([12]; Table 9, mean MIC over CL4931, CL5053, CL5242, CL4877)?
**A.** 1664.0

**Q.** What about the Mean ([12]; Table 10, mean MIC over CL4931, CL5053, CL5242, CL4877) of the same compound?
**A.** 1536.0

**Q.** What about the Mean ([12]; mean of CL4931, CL5053, CL5242, CL4877, unit not given) of the same compound?
**A.** 1664.0

**Q.** And the MIC ([13]; Enterococcus faecium)?
**A.** 2050 µg/mL (≈ 1410 µM)

**Q.** And the MIC, CL5053 ([13]; Table 9)?
**A.** 2050 µg/mL (≈ 1410 µM)

**Q.** And the MIC, CL5053 ([13]; Table 10)?
**A.** 2050 µg/mL (≈ 1410 µM)

**Q.** What about the “CL5053 (in vitro testing)” value ([13]; Tables 7 and 8, unit not given) of the same compound?
**A.** 2048
